Data: paper PMC9661477, “New Dual P-Glycoprotein (P-gp) and Human Carbonic Anhydrase XII (hCA XII) Inhibitors as Multidrug Resistance (MDR) Reversers in Cancer Cells” (Journal of Medicinal Chemistry, 2022)
Structures can show the parent of a compound that is named as a salt.

Tested on: not given
Test: not given
Conditions: not given

melting point [°C] | Structure (SMILES)
100 to 102 | COc1cc(/C=C/C(=O)OCCCCCCCN(CCCOC(=O)c2c3ccccc3cc3ccccc23)CCCOc2ccc3ccc(=O)oc3c2)cc(OC)c1OC (as salt: hydrochloride) [Compound 21, (E)-3-((3-((2-Oxo-2H-chromen-7-yl)oxy)propyl)(7-((3-(3,4,5-trimethoxyphenyl)acryloyl)oxy)heptyl)amino)propyl Anthracene-9-carboxylate]
74 to 77 | COc1cc(/C=C/C(=O)OCCCN(CCCCCOC(=O)c2cc(OC)c(OC)c(OC)c2)CCCOc2ccc3ccc(=O)oc3c2)cc(OC)c1OC (as salt: hydrochloride) [Compound 4, (E)-5-((3-((2-Oxo-2H-chromen-7-yl)oxy)propyl)(3-((3-(3,4,5-trimethoxyphenyl)acryloyl)oxy)propyl)amino)pentyl 3,4,5-Trimethoxybenzoate]
75 to 77 | COc1cc(C(=O)OCCCCCCCN(CCCOC(=O)c2c3ccccc3cc3ccccc23)CCCOc2ccc3ccc(=O)oc3c2)cc(OC)c1OC (as salt: hydrochloride) [Compound 24, 3-((3-((2-Oxo-2H-chromen-7-yl)oxy)propyl)(7-((3,4,5-trimethoxybenzoyl)oxy)heptyl)amino)propyl Anthracene-9-carboxylate]
84 to 87 | COc1cc(/C=C/C(=O)OCCCCCCCN(CCCOC(=O)c2cc(OC)c(OC)c(OC)c2)CCCOc2ccc3ccc(=O)oc3c2)cc(OC)c1OC (as salt: hydrochloride) [Compound 20, (E)-3-((3-((2-Oxo-2H-chromen-7-yl)oxy)propyl)(7-((3-(3,4,5-trimethoxyphenyl)acryloyl)oxy)heptyl)amino)propyl 3,4,5-Trimethoxybenzoate]
92 to 95 | COc1cc(/C=C/C(=O)OCCCN(CCCCCOC(=O)c2c3ccccc3cc3ccccc23)CCCOc2ccc3ccc(=O)oc3c2)cc(OC)c1OC (as salt: hydrochloride) [Compound 7, (E)-5-((3-((2-Oxo-2H-chromen-7-yl)oxy)propyl)(3-((3-(3,4,5-trimethoxyphenyl)acryloyl)oxy)propyl)amino)pentyl Anthracene-9-carboxylate]
99 to 102 | COc1cc(/C=C/C(=O)OCCCCCCN(CCCOC(=O)c2c3ccccc3cc3ccccc23)CCCOc2ccc3ccc(=O)oc3c2)cc(OC)c1OC (as salt: hydrochloride) [Compound 12, (E)-3-((3-((2-Oxo-2H-chromen-7-yl)oxy)propyl)(6-((3-(3,4,5-trimethoxyphenyl)acryloyl)oxy)hexyl)amino)propyl Anthracene-9-carboxylate]
118 to 121 | O=C(OCCCCCN(CCCOC(=O)c1c2ccccc2cc2ccccc12)CCCOc1ccc2ccc(=O)oc2c1)c1c2ccccc2cc2ccccc12 (as salt: hydrochloride) [Compound 9, 3-((5-((Anthracene-9-carbonyl)oxy)pentyl)(3-((2-oxo-2H-chromen-7-yl)oxy)propyl)amino)propyl Anthracene-9-carboxylate]
94 to 97 | COc1cc(/C=C/C(=O)OCCCCCN(CCCOC(=O)c2c3ccccc3cc3ccccc23)CCCOc2ccc3ccc(=O)oc3c2)cc(OC)c1OC (as salt: hydrochloride) [Compound 3, (E)-3-((3-((2-Oxo-2H-chromen-7-yl)oxy)propyl)(5-((3-(3,4,5-trimethoxyphenyl)acryloyl)oxy)pentyl)amino)propyl Anthracene-9-carboxylate]
114 to 117 | COc1cc(C(=O)OCCCCCN(CCCOC(=O)c2c3ccccc3cc3ccccc23)CCCOc2ccc3ccc(=O)oc3c2)cc(OC)c1OC (as salt: hydrochloride) [Compound 6, 3-((3-((2-Oxo-2H-chromen-7-yl)oxy)propyl)(5-((3,4,5-trimethoxybenzoyl)oxy)pentyl)amino)propyl Anthracene-9-carboxylate]
128 to 131 | COc1cc(/C=C/C(=O)OCCCCCN(CCCOC(=O)c2cc(OC)c(OC)c(OC)c2)CCCOc2ccc3ccc(=O)oc3c2)cc(OC)c1OC (as salt: hydrochloride) [Compound 2, (E)-3-((3-((2-Oxo-2H-chromen-7-yl)oxy)propyl)(5-((3-(3,4,5-trimethoxyphenyl)acryloyl)oxy)pentyl)amino)propyl 3,4,5-Trimethoxybenzoate]
73 to 76 | COc1cc(/C=C/C(=O)OCCCN(CCCCCCCOC(=O)c2cc(OC)c(OC)c(OC)c2)CCCOc2ccc3ccc(=O)oc3c2)cc(OC)c1OC (as salt: hydrochloride) [Compound 22, (E)-7-((3-((2-Oxo-2H-chromen-7-yl)oxy)propyl)(3-((3-(3,4,5-trimethoxyphenyl)acryloyl)oxy)propyl)amino)heptyl 3,4,5-Trimethoxybenzoate]
148 to 151 | COc1cc(C(=O)OCCCCCCN(CCCOC(=O)c2c3ccccc3cc3ccccc23)CCCOc2ccc3ccc(=O)oc3c2)cc(OC)c1OC (as salt: hydrochloride) [Compound 15, 3-((3-((2-Oxo-2H-chromen-7-yl)oxy)propyl)(6-((3,4,5-trimethoxybenzoyl)oxy)hexyl)amino)propyl Anthracene-9-carboxylate]
107 to 110 | COc1cc(/C=C/C(=O)OCCCN(CCCCCCCOC(=O)c2c3ccccc3cc3ccccc23)CCCOc2ccc3ccc(=O)oc3c2)cc(OC)c1OC (as salt: hydrochloride) [Compound 25, (E)-7-((3-((2-Oxo-2H-chromen-7-yl)oxy)propyl)(3-((3-(3,4,5-trimethoxyphenyl)acryloyl)oxy)propyl)amino)heptyl Anthracene-9-carboxylate]
97 to 99 | COc1cc(C(=O)OCCCN(CCCCCCCOC(=O)c2c3ccccc3cc3ccccc23)CCCOc2ccc3ccc(=O)oc3c2)cc(OC)c1OC (as salt: hydrochloride) [Compound 26, 7-((3-((2-Oxo-2H-chromen-7-yl)oxy)propyl)(3-((3,4,5-trimethoxybenzoyl)oxy)propyl)amino)heptyl Anthracene-9-carboxylate]
87 to 90 | COc1cc(C(=O)OCCCN(CCCCCCOC(=O)c2c3ccccc3cc3ccccc23)CCCOc2ccc3ccc(=O)oc3c2)cc(OC)c1OC (as salt: hydrochloride) [Compound 17, 6-((3-((2-Oxo-2H-chromen-7-yl)oxy)propyl)(3-((3,4,5-trimethoxybenzoyl)oxy)propyl)amino)hexyl Anthracene-9-carboxylate]
84 to 87 | COc1cc(C(=O)OCCCCCN(CCCOC(=O)c2cc(OC)c(OC)c(OC)c2)CCCOc2ccc3ccc(=O)oc3c2)cc(OC)c1OC (as salt: hydrochloride) [Compound 5, 5-((3-((2-Oxo-2H-chromen-7-yl)oxy)propyl)(3-((3,4,5-trimethoxybenzoyl)oxy)propyl)amino)pentyl 3,4,5-Trimethoxybenzoate]
92 to 95 | COc1cc(/C=C/C(=O)OCCCN(CCCCCCOC(=O)c2c3ccccc3cc3ccccc23)CCCOc2ccc3ccc(=O)oc3c2)cc(OC)c1OC (as salt: hydrochloride) [Compound 16, (E)-6-((3-((2-Oxo-2H-chromen-7-yl)oxy)propyl)(3-((3-(3,4,5-trimethoxyphenyl)acryloyl)oxy)propyl)amino)hexyl Anthracene-9-carboxylate]
71 to 74 | COc1cc(/C=C/C(=O)OCCCCCCN(CCCOC(=O)c2cc(OC)c(OC)c(OC)c2)CCCOc2ccc3ccc(=O)oc3c2)cc(OC)c1OC (as salt: hydrochloride) [Compound 11, (E)-3-((3-((2-Oxo-2H-chromen-7-yl)oxy)propyl)(6-((3-(3,4,5-trimethoxyphenyl)acryloyl)oxy)hexyl)amino)propyl 3,4,5-Trimethoxybenzoate]
83 to 85 | COc1cc(C(=O)OCCCCCCN(CCCOC(=O)c2cc(OC)c(OC)c(OC)c2)CCCOc2ccc3ccc(=O)oc3c2)cc(OC)c1OC (as salt: hydrochloride) [Compound 14, 6-((3-((2-Oxo-2H-chromen-7-yl)oxy)propyl)(3-((3,4,5-trimethoxybenzoyl)oxy)propyl)amino)hexyl 3,4,5-Trimethoxybenzoate]
117 to 119 | O=C(OCCCCCCCN(CCCOC(=O)c1c2ccccc2cc2ccccc12)CCCOc1ccc2ccc(=O)oc2c1)c1c2ccccc2cc2ccccc12 (as salt: hydrochloride) [Compound 27, 3-((7-((Anthracene-9-carbonyl)oxy)heptyl)(3-((2-oxo-2H-chromen-7-yl)oxy)propyl)amino)propyl Anthracene-9-carboxylate]
136 to 139 | O=C(OCCCCCCN(CCCOC(=O)c1c2ccccc2cc2ccccc12)CCCOc1ccc2ccc(=O)oc2c1)c1c2ccccc2cc2ccccc12 (as salt: hydrochloride) [Compound 18, 3-((6-((Anthracene-9-carbonyl)oxy)hexyl)(3-((2-oxo-2H-chromen-7-yl)oxy)propyl)amino)propyl Anthracene-9-carboxylate]

Biological target: hCA I (Homo sapiens, UniProt P00915)
Sequence (P00915 whole entry): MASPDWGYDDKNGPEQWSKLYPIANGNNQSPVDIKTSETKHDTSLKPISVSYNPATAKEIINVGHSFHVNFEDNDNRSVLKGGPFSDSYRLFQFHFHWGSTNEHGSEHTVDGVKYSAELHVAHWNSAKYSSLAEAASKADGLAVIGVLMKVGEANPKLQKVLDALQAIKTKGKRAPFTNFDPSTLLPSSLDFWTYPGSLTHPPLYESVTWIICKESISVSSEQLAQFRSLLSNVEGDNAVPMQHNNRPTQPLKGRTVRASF
Test: stopped-flow CO2 hydrase assay, hCA I
Conditions: read-out: Ki hCA I; stopped-flow technique, mean from three different assays
From the text: (§1) An SX.18MV-R Applied Photophysics (Oxford, U.K.) stopped-flow instrument has been used to assay the catalytic/inhibition of various CA isozymes.[38] […] The inhibition constants were obtained by nonlinear least-squares methods using the Cheng–Prusoff equation, as reported earlier,[32] and represent the mean from at least three different determinations.

Ki [µM] | Structure (SMILES)
> 10 | COc1cc(/C=C/C(=O)OCCCN(CCCCCCCOC(=O)c2cc(OC)c(OC)c(OC)c2)CCCOc2ccc3ccc(=O)oc3c2)cc(OC)c1OC [Compound 22, (E)-7-((3-((2-Oxo-2H-chromen-7-yl)oxy)propyl)(3-((3-(3,4,5-trimethoxyphenyl)acryloyl)oxy)propyl)amino)heptyl 3,4,5-Trimethoxybenzoate]
> 10 | COc1cc(/C=C/C(=O)OCCCN(CCCCCOC(=O)c2cc(OC)c(OC)c(OC)c2)CCCOc2ccc3ccc(=O)oc3c2)cc(OC)c1OC [Compound 4, (E)-5-((3-((2-Oxo-2H-chromen-7-yl)oxy)propyl)(3-((3-(3,4,5-trimethoxyphenyl)acryloyl)oxy)propyl)amino)pentyl 3,4,5-Trimethoxybenzoate]

Biological target: hCA II (Homo sapiens, UniProt P00918)
Test: stopped-flow CO2 hydrase assay, hCA II
Conditions: read-out: Ki hCA II; stopped-flow technique, mean from three different assays
From the text: as §1

Ki [µM] | Structure (SMILES)
> 10 | COc1cc(/C=C/C(=O)OCCCN(CCCCCCCOC(=O)c2cc(OC)c(OC)c(OC)c2)CCCOc2ccc3ccc(=O)oc3c2)cc(OC)c1OC [Compound 22, (E)-7-((3-((2-Oxo-2H-chromen-7-yl)oxy)propyl)(3-((3-(3,4,5-trimethoxyphenyl)acryloyl)oxy)propyl)amino)heptyl 3,4,5-Trimethoxybenzoate]
> 10 | COc1cc(/C=C/C(=O)OCCCN(CCCCCOC(=O)c2cc(OC)c(OC)c(OC)c2)CCCOc2ccc3ccc(=O)oc3c2)cc(OC)c1OC [Compound 4, (E)-5-((3-((2-Oxo-2H-chromen-7-yl)oxy)propyl)(3-((3-(3,4,5-trimethoxyphenyl)acryloyl)oxy)propyl)amino)pentyl 3,4,5-Trimethoxybenzoate]

Biological target: hCA IX (Homo sapiens, UniProt Q16790)
Test: stopped-flow CO2 hydrase assay, hCA IX
Conditions: read-out: Ki hCA IX; stopped-flow technique, mean from three different assays
From the text: as §1

Ki [µM] | Structure (SMILES)
0.0438 | COc1cc(/C=C/C(=O)OCCCN(CCCCCCCOC(=O)c2cc(OC)c(OC)c(OC)c2)CCCOc2ccc3ccc(=O)oc3c2)cc(OC)c1OC [Compound 22, (E)-7-((3-((2-Oxo-2H-chromen-7-yl)oxy)propyl)(3-((3-(3,4,5-trimethoxyphenyl)acryloyl)oxy)propyl)amino)heptyl 3,4,5-Trimethoxybenzoate]
0.0588 | COc1cc(/C=C/C(=O)OCCCN(CCCCCOC(=O)c2cc(OC)c(OC)c(OC)c2)CCCOc2ccc3ccc(=O)oc3c2)cc(OC)c1OC [Compound 4, (E)-5-((3-((2-Oxo-2H-chromen-7-yl)oxy)propyl)(3-((3-(3,4,5-trimethoxyphenyl)acryloyl)oxy)propyl)amino)pentyl 3,4,5-Trimethoxybenzoate]
